This passage reports IC50 results from BindingDB's records for doi:10.7270/Q2D798W4 (Burnham Center For Chemical Genomics, 2010).

In general, IC50 refers to the concentration that inhibits the measured activity by half. A higher IC50 goes with weaker potency in that assay.

This assay concerns the target T1, Alkaline phosphatase, tissue-nonspecific isozyme (Homo sapiens, UniProt P05186).
T1 sequence (P05186 whole entry): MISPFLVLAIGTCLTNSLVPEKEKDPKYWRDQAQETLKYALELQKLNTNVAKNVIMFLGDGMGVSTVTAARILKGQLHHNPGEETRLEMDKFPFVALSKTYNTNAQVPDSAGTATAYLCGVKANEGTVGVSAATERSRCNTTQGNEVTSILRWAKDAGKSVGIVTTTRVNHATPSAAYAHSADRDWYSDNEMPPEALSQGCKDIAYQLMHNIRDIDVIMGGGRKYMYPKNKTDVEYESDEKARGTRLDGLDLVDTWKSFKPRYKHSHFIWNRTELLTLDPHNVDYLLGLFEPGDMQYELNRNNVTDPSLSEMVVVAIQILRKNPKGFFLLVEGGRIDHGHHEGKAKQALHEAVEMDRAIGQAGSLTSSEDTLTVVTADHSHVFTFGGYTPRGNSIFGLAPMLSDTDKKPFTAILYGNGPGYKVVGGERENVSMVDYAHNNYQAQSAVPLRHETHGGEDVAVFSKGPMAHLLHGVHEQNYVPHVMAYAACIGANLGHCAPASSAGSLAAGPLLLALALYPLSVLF
The assay is described as follows: inhibition of tissue-nonspecific alkaline phosphatase – biochemical, dose response (AID 488882).
With `CC(N=Nc1ccccc1[N+](=O)[O-])c1ccc([N+](=O)[O-])cc1` (stereo unspecified), the IC50 was above 100 µM.

Compound `Cc1c(C(=O)NN=Cc2ccc(O)cc2O)[nH][nH]c1=O` had an IC50 of 7.32 µM.

`C=c1[nH]n(Cc2ccccc2)c(=O)c1=Cc1ccc(N(C)C)cc1` [(4Z)-4-[[4-(dimethylamino)phenyl]methylidene]-5-methyl-2-(phenylmethyl)-3-pyrazolone] had an IC50 of 46.7 µM.

Consider `O=C(Nn1c(O)csc1=S)C(=O)Nn1c(O)csc1=S` [SMR000349781], for which half-maximal inhibition (IC50) was put at 12.8 µM.

`CCOC1=CC(=Cc2c(C)[nH]oc2=O)C=C(Br)C1=O` [4-[(Z)-(3-bromo-5-ethoxy-4-oxo-1-cyclohexa-2,5-dienylidene)methyl]-3-methyl-2H-isoxazol-5-one] yielded an IC50 of 38.1 µM.

Compound `O=C(O)[C@H]1O[C@@H](Oc2c(-c3ccc(O)c(O)c3)oc3cc(O)cc(=O)c-3c2O)[C@H](O)[C@@H](O)[C@@H]1O` [quercetin glucuronide] came in with an IC50 above 100 µM.
